By Ki is commonly meant the dissociation constant of the complex between target and ligand, obtained from inhibition or displacement.

The source of these data is BindingDB's records for doi:10.1021/cc9800374 (Smithkline Beecham Pharmaceuticals, 1999).

Where only a bound is given, the exact number is not on record here.

Assay [1] concerns the target T1, Cathepsin K (Homo sapiens, UniProt P43235).
T1 sequence (P43235 whole entry): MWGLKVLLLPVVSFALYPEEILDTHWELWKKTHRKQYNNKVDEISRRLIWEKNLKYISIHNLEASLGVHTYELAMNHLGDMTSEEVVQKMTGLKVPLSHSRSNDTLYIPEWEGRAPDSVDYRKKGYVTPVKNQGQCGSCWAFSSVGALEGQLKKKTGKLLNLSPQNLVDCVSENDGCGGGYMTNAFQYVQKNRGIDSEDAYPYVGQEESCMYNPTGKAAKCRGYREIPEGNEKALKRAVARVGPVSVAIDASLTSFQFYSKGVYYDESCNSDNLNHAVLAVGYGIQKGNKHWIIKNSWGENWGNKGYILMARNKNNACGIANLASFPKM
The assay can be described thus: Inhibition Assay. Conditions: pH 5.5. The procedure: (§1) Inhibitors were assayed against human liver Cathepsin L and B. Inhibitors were also evaluated for inhibition against purified recombinant Cathepsin K.

In assay [2] the target is Cathepsin L (Homo sapiens, UniProt Q6LAF7). The assay can be described thus: Inhibition Assay. Conditions: pH 5.5. How it is done: as §1
Cathepsin L, sequence (Q6LAF7 whole entry): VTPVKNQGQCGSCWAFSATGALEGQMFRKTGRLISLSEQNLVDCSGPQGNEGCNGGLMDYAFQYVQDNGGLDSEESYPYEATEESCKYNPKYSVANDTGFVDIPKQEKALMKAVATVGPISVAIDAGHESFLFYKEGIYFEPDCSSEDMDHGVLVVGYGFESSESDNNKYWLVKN

For the compound `CC(=O)N[C@@H](CC(C)C)C(=O)NC(C)C(=O)CNC(=O)Cc1cccc(-c2ccccn2)c1` (stereo partly specified) [Cathepsin Inhibitor, Column 1 Row 1], the Ki in assay [1] is 0.2 µM; in assay [2] it was more than 1 µM.
Consider `CC(=O)N[C@@H](Cc1ccccc1)C(=O)NC(C)C(=O)CNC(=O)Cc1cccc(-c2ccccn2)c1` (stereo partly specified) [Cathepsin Inhibitor, Column 1 Row 2], for which the Ki in assay [1] and in assay [2] was more than 1 µM throughout.
`CC(=O)N[C@H](C(=O)NC(C)C(=O)CNC(=O)Cc1cccc(-c2ccccn2)c1)C(C)C` (stereo partly specified) [Cathepsin Inhibitor, Column 1 Row 3]: the inhibition constant Ki in assay [1] and in assay [2] was more than 1 µM in each case.
For `CC(C)C[C@H](NC(=O)c1ccc(C(F)(F)F)cc1)C(=O)NC(C)C(=O)CNC(=O)Cc1cccc(-c2ccccn2)c1` (stereo partly specified) [Cathepsin Inhibitor, Column 2 Row 1], the Ki stood at 0.0084 µM in assay [1] and 0.23 µM in assay [2].
The matching figures for `CC(NC(=O)[C@H](Cc1ccccc1)NC(=O)c1ccc(C(F)(F)F)cc1)C(=O)CNC(=O)Cc1cccc(-c2ccccn2)c1` (stereo partly specified) [Cathepsin Inhibitor, Column 2 Row 2]: 0.09 µM and 0.12 µM.
`CC(NC(=O)[C@@H](NC(=O)c1ccc(C(F)(F)F)cc1)C(C)C)C(=O)CNC(=O)Cc1cccc(-c2ccccn2)c1` (stereo partly specified) [Cathepsin Inhibitor, Column 2 Row 3]: the inhibition constant (Ki) is 0.43 µM in assay [1] and more than 1 µM in assay [2].
Take `COc1ccc(C(=O)N[C@@H](CC(C)C)C(=O)NC(C)C(=O)CNC(=O)Cc2cccc(-c3ccccn3)c2)cc1OC` (stereo partly specified) [Cathepsin Inhibitor, Column 3 Row 1]: the figures for the Ki in assay [1] and in assay [2] were 0.0074 µM and 0.15 µM, respectively.
In the same order, the values of `COc1ccc(C(=O)N[C@@H](Cc2ccccc2)C(=O)NC(C)C(=O)CNC(=O)Cc2cccc(-c3ccccn3)c2)cc1OC` (stereo partly specified) [Cathepsin Inhibitor, Column 3 Row 2] are 0.025 µM and 0.053 µM.
The matching figures for `COc1ccc(C(=O)N[C@H](C(=O)NC(C)C(=O)CNC(=O)Cc2cccc(-c3ccccn3)c2)C(C)C)cc1OC` (stereo partly specified) [Cathepsin Inhibitor, Column 3 Row 3]: more than 1 µM and more than 1 µM.
In the same order, the values of `CC(C)C[C@H](NC(=O)c1ccc2ncccc2c1)C(=O)NC(C)C(=O)CNC(=O)Cc1cccc(-c2ccccn2)c1` (stereo partly specified) [Cathepsin Inhibitor, Column 4 Row 1] are 0.018 µM and 0.13 µM.
On to `CC(NC(=O)[C@H](Cc1ccccc1)NC(=O)c1ccc2ncccc2c1)C(=O)CNC(=O)Cc1cccc(-c2ccccn2)c1` (stereo partly specified) [Cathepsin Inhibitor, Column 4 Row 2], for which the Ki in assay [1] was found to be 0.17 µM; in assay [2] it was 0.036 µM.
The matching figures for `CC(NC(=O)[C@@H](NC(=O)c1ccc2ncccc2c1)C(C)C)C(=O)CNC(=O)Cc1cccc(-c2ccccn2)c1` (stereo partly specified) [Cathepsin Inhibitor, Column 4 Row 3]: more than 1 µM and more than 1 µM.
For the compound `CC(C)C[C@H](NC(=O)c1ccc2ccccc2n1)C(=O)NC(C)C(=O)CNC(=O)Cc1cccc(-c2ccccn2)c1` (stereo partly specified) [Cathepsin Inhibitor, Column 5 Row 1], the Ki was 0.0017 µM in assay [1] and 0.13 µM in assay [2].
In the case of `CC(NC(=O)[C@H](Cc1ccccc1)NC(=O)c1ccc2ccccc2n1)C(=O)CNC(=O)Cc1cccc(-c2ccccn2)c1` (stereo partly specified) [Cathepsin Inhibitor, Column 5 Row 2], the results for the Ki in assay [1] and in assay [2] were 0.17 µM and 0.11 µM, respectively.
For `CC(NC(=O)[C@@H](NC(=O)c1ccc2ccccc2n1)C(C)C)C(=O)CNC(=O)Cc1cccc(-c2ccccn2)c1` (stereo partly specified) [Cathepsin Inhibitor, Column 5 Row 3], the Ki was 0.83 µM in assay [1] and more than 1 µM in assay [2].
Regarding `CC(C)C[C@H](NC(=O)c1cc2ccccc2s1)C(=O)NC(C)C(=O)CNC(=O)Cc1cccc(-c2ccccn2)c1` (stereo partly specified) [Cathepsin Inhibitor, Column 6 Row 1], the Ki in assay [1] worked out at 0.0013 µM; in assay [2], 0.09 µM.
`CC(NC(=O)[C@H](Cc1ccccc1)NC(=O)c1cc2ccccc2s1)C(=O)CNC(=O)Cc1cccc(-c2ccccn2)c1` (stereo partly specified) [Cathepsin Inhibitor, Column 6 Row 2]: the inhibitory constant (Ki) in assay [1] came out at 0.016 µM; in assay [2], 0.018 µM.
For the compound `CC(NC(=O)[C@@H](NC(=O)c1cc2ccccc2s1)C(C)C)C(=O)CNC(=O)Cc1cccc(-c2ccccn2)c1` (stereo partly specified) [Cathepsin Inhibitor, Column 6 Row 3], the Ki in assay [1] was 0.3 µM; in assay [2], more than 1 µM.
